According to ChEMBL document CHEMBL5154705, “Discovery and mechanistic study of thiazole-4-acylsulfonamide derivatives as potent and orally active ChemR23 inhibitors with a long-acting effect in cynomolgus monkeys” (Bioorg Med Chem, 2022):

Assays:
Chemerin-like receptor 1 [1] = target: T1, Chemerin-like receptor 1 (Homo sapiens, UniProt Q99788); assay: Inhibition of human ChemR23 expressed in CAL-1 cells assessed as receptor internalization; type: functional, cell-based, CAL1
T1 sequence (Q99788 whole entry): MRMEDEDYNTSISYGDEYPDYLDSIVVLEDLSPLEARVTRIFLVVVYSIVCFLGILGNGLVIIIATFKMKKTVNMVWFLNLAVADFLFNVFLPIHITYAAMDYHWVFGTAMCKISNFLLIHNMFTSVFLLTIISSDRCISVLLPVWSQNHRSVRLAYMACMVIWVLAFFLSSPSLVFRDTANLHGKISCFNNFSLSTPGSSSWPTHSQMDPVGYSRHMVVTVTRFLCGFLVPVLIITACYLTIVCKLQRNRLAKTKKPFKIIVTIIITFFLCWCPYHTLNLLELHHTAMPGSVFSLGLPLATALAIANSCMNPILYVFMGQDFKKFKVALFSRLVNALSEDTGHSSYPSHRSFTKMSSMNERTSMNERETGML

Chemerin-like receptor 1 [2] = target: T1, Chemerin-like receptor 1; assay: Inhibition of human ChemR23 expressed in CAL-1 cells assessed as reduction in chemerin-induced calcium signaling; type: functional, cell-based, CAL1
[3] = target: T2, Chemerin-like receptor 1 (Homo sapiens) (UniProt Q99788); conditions: CAL1
T2 sequence (whole entry): T1 sequence (Q99788 whole entry)

[4] = Drug concentration in cynomolgus monkey plasma at 1 mg/kg, po after 8 hrs; type: ADME, organism-based, Macaca fascicularis
[5] = MRT in cynomolgus monkey at 0.3 to 1 mg/kg, po; type: ADME, organism-based, Macaca fascicularis; conditions: in vivo, dose 0.3-1 mg/kg
[6] = Cmax in cynomolgus monkey at 0.3 to 1 mg/kg, po; type: ADME, organism-based, Macaca fascicularis; set-up: route po; conditions: in vivo, dose 0.3-1 mg/kg
[7] = Tmax in cynomolgus monkey at 0.3 to 1 mg/kg, po; type: ADME, organism-based, Macaca fascicularis; conditions: in vivo, dose 0.3-1 mg/kg
[8] = Half life in cynomolgus monkey at 0.3 to 1 mg/kg, po; type: ADME, organism-based, Macaca fascicularis; conditions: in vivo, dose 0.3-1 mg/kg
[9] = AUC(0 to infinity) in cynomolgus monkey at 0.3 to 1 mg/kg, po; type: ADME, organism-based, Macaca fascicularis; set-up: route po; conditions: in vivo, dose 0.3-1 mg/kg
[10] = AUC(0 to infinity) in cynomolgus monkey at 1 mg/kg, po; type: ADME, organism-based, Macaca fascicularis; set-up: time infinity, dose 1 mg/kg, route po; conditions: in vivo
[11] = Cmax in cynomolgus monkey at 1 mg/kg, po; type: ADME, organism-based, Macaca fascicularis; set-up: dose 1 mg/kg, route po; conditions: in vivo
[12] = Tmax in cynomolgus monkey at 0.3 mg/kg, po; type: ADME, organism-based, Macaca fascicularis; conditions: in vivo
[13] = MRT in cynomolgus monkey at 0.3 mg/kg, po; type: ADME, organism-based, Macaca fascicularis; conditions: in vivo
[14] = Drug concentration in cynomolgus monkey plasma at 0.3 mg/kg, po after 8 hrs; type: ADME, organism-based, Macaca fascicularis
[15] = Cmax in cynomolgus monkey at 0.3 mg/kg, po; type: ADME, organism-based, Macaca fascicularis; set-up: dose 0.3 mg/kg, route po; conditions: in vivo
[16] = AUC(0 to infinity) in cynomolgus monkey at 0.3 mg/kg, po; type: ADME, organism-based, Macaca fascicularis; set-up: time infinity, dose 0.3 mg/kg, route po; conditions: in vivo
[17] = Half life in cynomolgus monkey at 0.3 mg/kg, po; type: ADME, organism-based, Macaca fascicularis; conditions: in vivo

SMILES: C[C@H](c1ccc(-c2cc(Cl)ccc2C(=O)NCCOCCOCCOCCOCCOCCOCCOCCOCCOCCOCCOCCOCCOCCOCCOCCOCCOCCOCCOCOCCOCCOCCOCCN=[N+]=[N-])cc1)N(CC1CC1)c1nc(C(=O)NS(=O)(=O)C2CC2)c(C2CC2)s1
- EC50 (Chemerin-like receptor 1 [1]): 0.38 µM
- IC50 (Chemerin-like receptor 1 [2]): 0.1 µM

SMILES: Cc1ccc(-c2nc(=O)o[nH]2)c(-c2ccc([C@@H](C)N(CC3CC3)c3nc(C(=O)NS(=O)(=O)C4CC4)c(-c4ccncc4)s3)cc2)c1
- IC80 [3]: 0.074 µM

SMILES: Cc1ccc(-c2nc(=O)o[nH]2)c(-c2ccc([C@@H](C)N(CC3CC3)c3nc(C(=O)NS(=O)(=O)C4CC4)c(C(C)C)s3)cc2)c1
- concentration at 8 h [4]: 1140 ng/mL
- MRT [5]: 5.2 h
- IC80 [3]: 0.018 µM
- Cmax [6]: 5670 ng/mL
- Tmax [7]: 4 h
- half-life [8]: 2.4 h
- AUC(0-inf) [9]: 33800 ng·h/mL

SMILES: Cc1sc(N(CC2CC2)[C@H](C)c2ccc(-c3cc(Cl)ccc3-c3nc(=O)o[nH]3)cc2)nc1C(=O)NS(C)(=O)=O
- concentration at 8 h [4]: 4.2 ng/mL
- AUC(0-inf) [10]: 726 ng·h/mL
- Cmax [11]: 216 ng/mL

SMILES: CCCc1sc(N(CC2CC2)[C@H](C)c2ccc(-c3cc(C)ccc3-c3nc(=O)o[nH]3)cc2)nc1C(=O)NS(=O)(=O)C1CC1
- IC80 [3]: 0.025 µM

SMILES: Cc1ccc(-c2nc(=O)o[nH]2)c(-c2ccc([C@@H](C)N(CC3CC3)c3nc(C(=O)NS(=O)(=O)C4CC4)c(CC(C)C)s3)cc2)c1
- concentration at 8 h [4]: 772 ng/mL
- MRT [5]: 4.9 h
- IC80 [3]: 0.042 µM
- Cmax [6]: 4250 ng/mL
- Tmax [7]: 2.7 h
- half-life [8]: 2.3 h
- AUC(0-inf) [9]: 21900 ng·h/mL

SMILES: C[C@H](c1ccc(-c2cc(Cl)ccc2C(N)=O)cc1)N(CC1CC1)c1nc(C(=O)NS(=O)(=O)C2CC2)c(C2CC2)s1
- Tmax [12]: 1.3 h
- MRT [13]: 3.4 h
- concentration at 8 h [14]: 68.9 ng/mL
- Cmax [15]: 730 ng/mL
- IC80 [3]: 0.0098 µM
- AUC(0-inf) [16]: 2950 ng·h/mL
- half-life [17]: 1.8 h

SMILES: Cc1ccc(-c2nc(=O)o[nH]2)c(-c2ccc([C@@H](C)N(CC3CC3)c3nc(C(=O)NS(=O)(=O)C4CC4)c(-c4ccoc4)s3)cc2)c1
- IC80 [3]: > 0.33 µM

SMILES: CCNC(=O)CCC(=O)N1Cc2ccccc2-c2nnn(CCOCCOCCOCCOCCOCCOCCNC(=O)c3ccc(Cl)cc3-c3ccc([C@@H](C)N(CC4CC4)c4nc(C(=O)NS(=O)(=O)C5CC5)c(C5CC5)s4)cc3)c2-c2ccccc21
- IC50 (Chemerin-like receptor 1 [2]): 0.0091 µM

SMILES: Cc1sc(N(CC2CC2)[C@H](C)c2ccc(-c3cc(Cl)ccc3-c3nc(=O)o[nH]3)cc2)nc1C(=O)NS(=O)(=O)C1CC1
- concentration at 8 h [4]: 18 ng/mL
- AUC(0-inf) [10]: 3740 ng·h/mL
- Cmax [11]: 1210 ng/mL

SMILES: Cc1ccc(-c2nc(=O)o[nH]2)c(-c2ccc([C@@H](C)N(CC3CC3)c3nc(C(=O)NS(=O)(=O)C4CC4)c(C4CCOC4)s3)cc2)c1 (some centres undefined)
- IC80 [3]: 0.012 µM

SMILES: Cc1sc(N(CC2CC2)[C@H](C)c2ccc(-c3cc(Cl)ccc3-c3nc(=O)o[nH]3)cc2)nc1C(=O)NC1CC1
- IC80 [3]: > 0.33 µM

SMILES: Cc1ccc(-c2nc(=O)o[nH]2)c(-c2ccc([C@@H](C)N(CC3CC3)c3nc(C(=O)NS(=O)(=O)C4CC4)c(C4CCC4)s3)cc2)c1
- concentration at 8 h [4]: 2600 ng/mL
- MRT [5]: 5.7 h
- IC80 [3]: 0.13 µM
- Cmax [6]: 7910 ng/mL
- Tmax [7]: 2.7 h
- half-life [8]: 2.8 h
- AUC(0-inf) [9]: 55800 ng·h/mL

SMILES: Cc1sc(N(CC2CC2)[C@H](C)c2ccc(-c3cc(Cl)ccc3-c3nc(=O)o[nH]3)cc2)nc1C(=O)O
- concentration at 8 h [4]: 7.9 ng/mL
- AUC(0-inf) [10]: 2210 ng·h/mL
- Cmax [11]: 646 ng/mL

SMILES: Cc1ccc(-c2nc(=O)o[nH]2)c(-c2ccc([C@@H](C)N(CC3CC3)c3nc(C(=O)NS(=O)(=O)C4CC4)c(-c4ccsc4)s3)cc2)c1
- IC80 [3]: > 0.33 µM

SMILES: C[C@H](c1ccc(-c2cc(Cl)ccc2C(=O)NCCOCCOCCOCCOCCOCCOCCN=[N+]=[N-])cc1)N(CC1CC1)c1nc(C(=O)NS(=O)(=O)C2CC2)c(C2CC2)s1
- EC50 (Chemerin-like receptor 1 [1]): 0.022 µM
- IC50 (Chemerin-like receptor 1 [2]): 0.012 µM

SMILES: CONC(=O)c1ccc(Cl)cc1-c1ccc([C@@H](C)N(CC2CC2)c2nc(C(=O)NS(=O)(=O)C3CC3)c(C3CC3)s2)cc1
- Tmax [12]: 2.7 h
- MRT [13]: 5.3 h
- concentration at 8 h [14]: 116 ng/mL
- Cmax [15]: 484 ng/mL
- AUC(0-inf) [16]: 3290 ng·h/mL
- half-life [17]: 3.3 h
